Here are results for 24 molecules from ChEMBL document CHEMBL4020719, “Synthesis and biological evaluation of novel indole-pyrimidine hybrids bearing morpholine and thiomorpholine moieties” (Eur J Med Chem, 2017).

The IC50 is the concentration that inhibits the measured activity by half. The low end stands for greater potency, the high end for weaker potency. The inhibition is the share of the control response that was lost under treatment.

In test [1] the test system is HCT-116. Nature of the test: cells. The settings on record: Homo sapiens, HCT-116, 48 h.
A further test relates to MDA-MB-231. Nature of the test: Antiproliferative activity against human MDA-MB-231 cells after 48 hrs by MTT assay. In kind it is functional, cell-based. The settings on record: MDA-MB-231, 48 h. For orientation: Tetrazolium dyes change colour on reduction, which living cells bring about.
The test system of another test is MCF7. Nature of the test: cells. The settings on record: Homo sapiens, MCF7, 48 h.
Test [2] relates to HeLa. Kind of test: cells. The settings on record: Homo sapiens, 48 h.
In another test the test system is HEK293. Nature of the test: Antiproliferative activity against HEK293 cells after 48 hrs by MTT assay. In kind it is cell-based. The settings on record: Homo sapiens, HEK293, 48 h.
Test [3] has as its system HeLa. Nature of the test: Cell cycle arrest in human HeLa cells assessed as accumulation at G2/M phase at 5 uM after 12 hrs by FACS analysis (reference value: 9.12%). Type of test: functional.
For test [4], the system named is HeLa. Kind of test: Cell cycle arrest in human HeLa cells assessed as accumulation at G0/G1 phase at 5 uM after 12 hrs by FACS analysis (reference value: 61.74%). Type of test: functional.
The species entered for the next test is Sus scrofa. Nature of the test: Inhibition of pig brain tubulin polymerization at 10 uM by spectrophotometric analysis.
For test [5], the system named is HeLa. Nature of the test: Cell cycle arrest in human HeLa cells assessed as accumulation at G0/G1 phase at 1.25 uM after 12 hrs by FACS analysis (reference value: 61.74%). In kind it is functional.
Test [6] deals with HeLa. Kind of test: Cell cycle arrest in human HeLa cells assessed as accumulation at G2/M phase at 1.25 uM after 12 hrs by FACS analysis (reference value: 9.12%). Type of test: functional. On the technique in general: In flow cytometry, cells or beads pass a laser one at a time.
Test [7] relates to HeLa. Nature of the test: Cell cycle arrest in human HeLa cells assessed as accumulation at G2/M phase after 12 hrs by FACS analysis. Type of test: functional, cell-based.
The subject of test [8] is HeLa. Nature of the test: Cell cycle arrest in human HeLa cells assessed as accumulation at G2/M phase at 2.5 uM after 12 hrs by FACS analysis (reference value: 9.12%). Type of test: functional.
For test [9], the system named is HeLa. Nature of the test: Cell cycle arrest in human HeLa cells assessed as accumulation at G0/G1 phase at 2.5 uM after 12 hrs by FACS analysis (reference value: 61.74%). Type of test: functional.
Test [10] has as its system HeLa. Kind of test: Cell cycle arrest in human HeLa cells assessed as accumulation at S phase at 5 uM after 12 hrs by FACS analysis (reference value: 29.14%). In kind it is functional.
Test [11] has as its system HeLa. Kind of test: Cell cycle arrest in human HeLa cells assessed as accumulation at S phase at 1.25 uM after 12 hrs by FACS analysis (reference value: 29.14%). In kind it is functional.
Test [12] concerns HeLa. Kind of test: Cell cycle arrest in human HeLa cells assessed as accumulation at S phase at 2.5 uM after 12 hrs by FACS analysis (reference value: 29.14%). In kind it is functional.
Test [13] is described as follows: Inhibition of pig brain tubulin polymerization by spectrophotometric analysis. The arrangement: species or system Sus scrofa.
The test system of test [14] is HCT-116. Nature of the test: Potency index, ratio of CA-4 IC50 to compound IC50 for human HCT116 cells. In kind it is functional.

In the case of `Cc1ccc2c(Nc3nc(N4CCOCC4)ncc3[N+](=O)[O-])c(C(=O)c3ccccc3)[nH]c2c1`, the IC50 stood at 80.6 µM in the test on HCT-116 [1], 76.3 µM in the test on MDA-MB-231, 56.8 µM with MCF7 and 47.1 µM in the test on HeLa [2].
On to `COc1ccc(C(=O)c2[nH]c3cc(C)ccc3c2Nc2nc(N3CCOCC3)ncc2[N+](=O)[O-])cc1`, for which the IC50 with HCT-116 [1] was 44 µM; in the test with MDA-MB-231, 89.4 µM; in the test with MCF7, above 100 µM; in the test with HeLa [2], 90.5 µM.
The like results for `Cc1ccc2c(Nc3nc(N4CCOCC4)ncc3[N+](=O)[O-])c(C(=O)c3ccc(-c4ccccc4)cc3)[nH]c2c1` were, in that order, above 100 µM, above 100 µM, 60.4 µM and 7.46 µM.
Regarding `Cc1ccc2c(Nc3nc(N4CCOCC4)ncc3[N+](=O)[O-])c(C(=O)c3ccc(Cl)cc3)[nH]c2c1`, the concentration for half-maximal inhibition (IC50) is above 100 µM in the test with HCT-116 [1], above 100 µM with MDA-MB-231, 98.7 µM in the test on MCF7 and above 100 µM with HeLa [2].
In the case of `O=C(c1ccc(Br)cc1)c1[nH]c2ccccc2c1Nc1nc(N2CCSCC2)ncc1[N+](=O)[O-]`, the IC50 in the test with HCT-116 [1], in the test on MDA-MB-231, in the test with MCF7 and in the test with HeLa [2] was above 100 µM in each case.
Turning to `O=C(c1ccc(Br)cc1)c1[nH]c2ccccc2c1Nc1nc(N2CCOCC2)ncc1[N+](=O)[O-]`, the IC50 is 33.3 µM in the test on HCT-116 [1], 34.1 µM in the test with MDA-MB-231, 85.4 µM in the test with MCF7 and 54.3 µM in the test on HeLa [2].
Consider `O=C(c1cccc(Br)c1)c1[nH]c2ccccc2c1Nc1nc(N2CCOCC2)ncc1[N+](=O)[O-]`, for which the 50% inhibitory concentration (IC50) in the test with HCT-116 [1] came out at 11.4 µM; in the test with HEK293, 10.1 µM; with MDA-MB-231 it was 9.42 µM; in the test with MCF7, 1.42 µM; with HeLa [2], 2.51 µM. In addition, the Activity with HeLa [3] was 88.58%; in the test with HeLa [4], 5.02%; in the test on HeLa [5] it was 53.32%; in the test with HeLa [6], 12.63%; in the test with HeLa [7], “Dose-dependent effect”; with HeLa [8], 58.34%. The Activity stood at 15.31% with HeLa [9], 6.4% with HeLa [10], 34.05% in the test with HeLa [11] and 26.35% with HeLa [12]. The inhibition in the test listed under Sus scrofa came to 36%.
As to `Cc1ccc2c(Nc3nc(N4CCOCC4)ncc3[N+](=O)[O-])c(C(=O)c3cccs3)[nH]c2c1`, the concentration for half-maximal inhibition (IC50) in the test with HCT-116 [1] was 39.1 µM; in the test on MDA-MB-231 it was 93.7 µM; with MCF7, above 100 µM; with HeLa [2], above 100 µM.
Regarding `O=C(c1[nH]c2ccccc2c1Nc1nc(N2CCOCC2)ncc1[N+](=O)[O-])C1CC1`, the IC50 in the test on HCT-116 [1] came to 73.5 µM; in the test with MDA-MB-231, 89.4 µM; in the test with MCF7, 89.4 µM; with HeLa [2] it was 49.6 µM.
Consider `O=C(c1ccccc1)c1[nH]c2ccccc2c1Nc1nc(N2CCSCC2)ncc1[N+](=O)[O-]`, for which the half-maximal inhibitory concentration (IC50) in the test on HCT-116 [1], in the test with MDA-MB-231, in the test on MCF7 and in the test with HeLa [2] was above 100 µM throughout. For the same molecule, the inhibition in the test filed under Sus scrofa was found to be 2%.
On to `Cc1ccc2c(Nc3nc(N4CCOCC4)ncc3[N+](=O)[O-])c(C(=O)c3ccc(Br)cc3)[nH]c2c1`, for which the IC50 with HCT-116 [1], in the test with MDA-MB-231, in the test on MCF7 and in the test with HeLa [2] was above 100 µM each time.
As to `O=C(c1ccc(-c2ccccc2)cc1)c1[nH]c2ccccc2c1Nc1nc(N2CCOCC2)ncc1[N+](=O)[O-]`, the 50% inhibitory concentration (IC50) in the test on HCT-116 [1] was 9.48 µM; in the test on HEK293, 78.6 µM; with MDA-MB-231, 10.3 µM; in the test on MCF7, 0.29 µM; in the test on HeLa [2], 4.04 µM; in test [13], 19.3 µM. In addition, the inhibition in the test listed under Sus scrofa turned out to be 42%.
For `COc1ccc(C(=O)c2[nH]c3cc(Cl)ccc3c2Nc2nc(N3CCOCC3)ncc2[N+](=O)[O-])cc1`, the IC50 in the test on HCT-116 [1] is 24.4 µM; in the test with MDA-MB-231, above 100 µM; with MCF7, 35 µM; in the test on HeLa [2], 47.1 µM. For the same molecule, in the test listed under Sus scrofa, the inhibition turned out to be 14%.
With `CN1CCN(c2ncc([N+](=O)[O-])c(Nc3c(C(=O)c4cccs4)[nH]c4cc(Cl)ccc34)n2)CC1`, the IC50 in the test with HCT-116 [1] was 17.4 µM; in the test on HEK293, above 100 µM; in the test on MDA-MB-231, 5.01 µM; in the test with MCF7, 13.9 µM; in the test on HeLa [2] it was 19.9 µM. Moreover, the inhibition in the test listed under Sus scrofa came out at 47%.
Consider `CCOC(=O)n1c(C(=O)c2ccc(OC)cc2)c(Nc2nc(N3CCOCC3)ncc2[N+](=O)[O-])c2ccccc21`, for which the concentration for half-maximal inhibition (IC50) is 2.99 µM in the test with HCT-116 [1]; above 100 µM in the test on HEK293; 3.01 µM in the test on MDA-MB-231; 2.13 µM with MCF7; 5.52 µM with HeLa [2]. The inhibition in the test filed under Sus scrofa came to 19%. Moreover, in the test with HCT-116 [14], the “Ratio IC50” value is 2.
In the case of `O=C(c1ccc(Cl)cc1)c1[nH]c2cc(Cl)ccc2c1Nc1nc(N2CCOCC2)ncc1[N+](=O)[O-]`, the IC50 with HCT-116 [1] was above 100 µM; in the test on MDA-MB-231, above 100 µM; in the test on MCF7, 83.7 µM; with HeLa [2], above 100 µM.
Take `O=C(c1ccccc1)c1[nH]c2ccccc2c1Nc1nc(N2CCOCC2)ncc1[N+](=O)[O-]`: the IC50 stood at 55.8 µM with HCT-116 [1], 92.6 µM in the test with MDA-MB-231, 89.2 µM with MCF7 and 82.5 µM in the test with HeLa [2]. The same molecule yielded an inhibition in the test filed under Sus scrofa of 23%.
Take `COc1ccc(C(=O)c2[nH]c3ccccc3c2Nc2nc(N3CCOCC3)ncc2[N+](=O)[O-])cc1`: the IC50 in the test on HCT-116 [1] came out at 6.4 µM; in the test with HEK293, 14.8 µM; with MDA-MB-231 it was 8.69 µM; with MCF7 it was 57.1 µM; in the test with HeLa [2], 4.32 µM. In the test listed under Sus scrofa, this molecule came in with an inhibition of 14%.
Regarding `O=C(c1cccs1)c1[nH]c2cc(Cl)ccc2c1Nc1nc(N2CCOCC2)ncc1[N+](=O)[O-]`, the IC50 with HCT-116 [1] was above 100 µM; in the test on MDA-MB-231 it was above 100 µM; with MCF7 it was 69.4 µM; in the test with HeLa [2] it was 94.7 µM. The molecule also showed an inhibition in the test filed under Sus scrofa of 19%.
For the molecule `COc1ccc(/C=C\c2cc(OC)c(OC)c(OC)c2)cc1O` [COMBRETASTATIN A4], the 50% inhibitory concentration (IC50) with HCT-116 [1] worked out at 6.1 µM; with MDA-MB-231, 270 µM; with MCF7 it was 0.041 µM; in the test with HeLa [2] it was 0.23 µM. The same molecule displayed an inhibition in the test filed under Sus scrofa of 80%.
For `O=C(c1ccccc1)c1[nH]c2cc(Cl)ccc2c1Nc1nc(N2CCOCC2)ncc1[N+](=O)[O-]`, the IC50 in the test with HCT-116 [1], in the test with MDA-MB-231, in the test on MCF7 and in the test with HeLa [2] was above 100 µM throughout. In the test filed under Sus scrofa, the inhibition is 9%.
`O=C(c1ccc(-c2ccccc2)cc1)c1[nH]c2cc(Cl)ccc2c1Nc1nc(N2CCOCC2)ncc1[N+](=O)[O-]`: the 50% inhibitory concentration (IC50) is above 100 µM in the test with HCT-116 [1], 58.7 µM in the test on MDA-MB-231, 42.7 µM in the test with MCF7 and 16.6 µM with HeLa [2].
Taken in the same sequence, the figures for `CCOC(=O)n1c(C(=O)c2ccccc2)c(Nc2nc(N3CCOCC3)ncc2[N+](=O)[O-])c2ccc(Cl)cc21` were 80.6 µM, 35.8 µM, 78.4 µM and above 100 µM.
Taken in the same sequence, the figures for `COc1ccc(C(=O)c2[nH]c3ccccc3c2Nc2nc(N3CCSCC3)ncc2[N+](=O)[O-])cc1` were above 100 µM, above 100 µM, above 100 µM and above 100 µM.
